The source of these data is US12268694B2, “Combination pharmaceutical agents as RSV inhibitors” (Enanta Pharmaceuticals, Inc., priority 2017, dated 2025).

Where only a bound is given, the exact number is not on record here.

This test deals with genotype A, "Long" strain RSV. Put plainly: RSV-A assay: CPE protection in HEp-2 cells, ATPlite readout. In kind it is cell-based, human respiratory syncytial virus. The note with it: human respiratory syncytial virus, HEp-2, read-out: Human RSV-A (“Long” strain) EC50. The text has this: HEp-2 cells, (originally derived from tumors grown in irradiated-cortisonised weanling rats that had been injected with epidermoid carcinoma tissue from a person's larynx, but later found to be indistinguishable from HeLa cells by PCR DNA analysis), were used for the culturing of genotype A, “Long” strain RSV. Flasks were inoculated with RSV and viral stocks were collected once cytopathic effect (CPE) was greater than 90%. Viral stocks in 25% sucrose media were snap frozen using liquid nitrogen to increase viral stability. Viral stock titers were quantified by tissue culture infectious dose 50% (TCID50) using 8,000 cells per well and 3-fold viral dilutions across a 96-well plate, cultured for 4 days. Viral stock titers were also quantified by a plaque forming unit assay, as described elsewhere.
Following extensive parameter testing, the final assay is run as follows: HEp-2 cells are seeded into the inner 60 wells of a 96-well plate at 8,000 cells per well in a volume of 50 μL using Growth Media (DMEM without phenol red, 1% L-Glut, 1% Penn/Strep, 1% nonessential amino acids, 10% heat-inactivated FBS). 2-fold serial dilutions of control and test compounds are added to the wells in duplicate in a total volume of 25 μL. Viral stock is then added to the wells at a multiplicity of infection (MOI) of 0.1 in a volume of 25 μL, bringing the total volume of each well to 100 μL. The MOI is calculated using the PFU/mL, or TCID50 if unavailable. Each 96-well plate has a control column of 6 wells with cells and virus but no compound (negative control, max CPE), a column with cells but no compound or virus (positive control, minimum CPE), and a column with no cells or virus or compound (background plate/reagent control). The control wells with cells but no virus are given an additional 25 μL of growth media containing an equal quantity of sucrose as those wells receiving the viral stock in order to keep consistent in media and volume conditions. The outer wells of the plate are filled with 125 μL of moat media (DMEM, 1% Penn/Strep) to act as a thermal and evaporative moat around the test wells. Following a 5-day incubation period, the plates are read using ATPlite (50 μL added per well), which quantifies the amount of ATP (a measure of cell health) present in each well. Assay plates are read using the Envision luminometer. In parallel, cytotoxicity is examined on an additional 96-well plate treated in an identical manner, but substituting the 25 μL of viral stock for 25 μL of growth media. […] EC50 ranges are as follows: A <0.4 μM; B 0.4-0.8 μM; C >0.8 μM and CC50 ranges are as follows: A >50 μM; B 10-50 μM; C <10 μM.
`O=C1Nc2ccccc2C(c2ccccc2)=NC1Nc1nnc(-c2ccc(-n3cncn3)nc2)o1` (stereo not shown) [Example 225]: the EC50 was above 800 nM.
On to `O=C1Nc2ccccc2C(c2ccccc2)=NC1Nc1nnc(-c2ccccc2-c2ccncc2)o1` (stereo not shown) [Example 226], for which the EC50 was above 800 nM.
On to `O=C1Nc2ccccc2C(c2ccccc2)=NC1Nc1nnc([C@@H]2CCCN2C2CCNCC2)o1` (stereo partly shown) [Example 227], for which the EC50 was above 800 nM.
With `CN1CCC(N2CCC[C@H]2c2nnc(NC3N=C(c4ccccc4)c4ccccc4NC3=O)o2)CC1` (stereo partly shown) [Example 228], the EC50 was above 800 nM.
As for `COCCOc1ccccc1-c1nnc(NC2N=C(c3ccccc3)c3ccccc3NC2=O)o1` (stereo not shown) [Example 229], the EC50 was above 800 nM.
`CC1(Nc2nnc(-c3ccc(F)cc3)o2)N=C(c2ccccc2)c2ccccc2NC1=O` (stereo not shown) [Example 230]: the EC50 was above 800 nM.
Turning to `O=C1Nc2ccccc2C(c2ccccc2)=NC1Nc1nnc(-c2ccc(-n3ccnc3)cc2)o1` (stereo not shown) [Example 231], the EC50 was below 400 nM.
On to `O=C1Nc2ccccc2C(c2ccccc2)=NC1Nc1nnc(-c2ccc(-n3ccnc3)nc2)o1` (stereo not shown) [Example 232], for which the EC50 is above 800 nM.
Regarding `O=C1Nc2ccccc2C(c2ccccc2)=NC1Nc1nnc(-c2ccc(-n3cnnc3)cc2)o1` (stereo not shown) [Example 233], the EC50 is above 800 nM.
As for `CN(C)CCOc1ccccc1-c1nnc(NC2N=C(c3ccccc3)c3ccccc3NC2=O)o1` (stereo not shown) [Example 234], the EC50 was above 800 nM.
`COCCOc1ccc(-c2nnc(NC3N=C(c4ccccc4)c4ccccc4NC3=O)o2)cc1` (stereo not shown) [Example 236]: the EC50 was above 800 nM.
Regarding `CN1CCN(c2ncccc2-c2nnc(NC3N=C(c4ccccc4)c4ccccc4NC3=O)o2)CC1` (stereo not shown) [Example 237], the half-maximal effective concentration (EC50) was above 800 nM.
As to `CN[C@H](c1ccccc1)c1nnc(NC2N=C(c3ccccc3)c3ccccc3NC2=O)o1` (stereo partly shown) [Example 238], the EC50 is above 800 nM.
`O=C1Nc2ccccc2C(c2ccccc2)=NC1Nc1nnc(-c2ccccc2OC2CCOCC2)o1` (stereo not shown) [Example 239]: the concentration for a half-maximal effect (EC50) was above 800 nM.
`O=C1Nc2ccccc2C(c2ccccc2)=NC1Nc1nnc(-c2ccccc2N2CCS(=O)(=O)CC2)o1` (stereo not shown) [Example 240]: the EC50 is above 800 nM.
To `O=C1Nc2ccccc2C(c2ccccc2)=NC1Nc1nnc(-c2cccnc2N2CCCCC2)o1` (stereo not shown) [Example 241] belongs above 800 nM.
To `C[C@@H]1CN(c2ccc(-c3nnc(N[C@H]4N=C(c5ccccc5)c5ccccc5NC4=O)o3)c(Cl)c2)C[C@H](C)O1` [Example 243] belongs above 800 nM; to `O=C1Nc2ccccc2C(c2ccccc2)=N[C@@H]1Nc1nnc(-c2ccc(N3C4CCC3COC4)cc2Cl)o1` [Example 244], above 800 nM.
For `O=C1Nc2ccccc2C(c2ccccc2)=NC1Nc1nnc(-c2cccnc2N2CCCC(F)(F)C2)o1` (stereo not shown) [Example 246], the concentration for a half-maximal effect (EC50) was above 800 nM.
As to `CO[C@H]1CCN(c2ncccc2-c2nnc(NC3N=C(c4ccccc4)c4ccccc4NC3=O)o2)C1` (stereo partly shown) [Example 247], the EC50 is above 800 nM.
In the case of `O=C1Nc2ccccc2C(c2ccccc2)=NC1Nc1nnc(-c2cccnc2N2C[C@@H]3C[C@H]2CO3)o1` (stereo partly shown) [Example 248], the EC50 is above 800 nM.
In the case of `COC1CCN(c2ncccc2-c2nnc(NC3N=C(c4ccccc4)c4ccccc4NC3=O)o2)CC1` (stereo not shown) [Example 254], the EC50 was above 800 nM.
For the molecule `O=C1Nc2ccccc2C(c2ccccc2)=NC1Nc1nnc(-c2cccnc2N2CCC(O)CC2)o1` (stereo not shown) [Example 255], the EC50 was above 800 nM.
`O=C1Nc2ccccc2C(c2ccccc2)=NC1Nc1nnc(-c2cccnc2N2CCC(F)CC2)o1` (stereo not shown) [Example 256]: the EC50 is above 800 nM.
As for `COC1CN(c2ncccc2-c2nnc(NC3N=C(c4ccccc4)c4ccccc4NC3=O)o2)C1` (stereo not shown) [Example 258], the EC50 is above 800 nM.
To `O=C1Nc2ccccc2C(c2ccccc2)=NC1Nc1nnc(-c2cccnc2N2CC(F)(F)C2)o1` (stereo not shown) [Example 259] belongs above 800 nM.
Turning to `N#CC1CCN(c2ncccc2-c2nnc(NC3N=C(c4ccccc4)c4ccccc4NC3=O)o2)CC1` (stereo not shown) [Example 260], the EC50 was above 800 nM.
On to `C[C@H]1COCCN1c1ncccc1-c1nnc(NC2N=C(c3ccccc3)c3ccccc3NC2=O)o1` (stereo partly shown) [Example 261], for which the EC50 was above 800 nM.
Regarding `C[C@@H]1CN(c2ncccc2-c2nnc(NC3N=C(c4ccccc4)c4ccccc4NC3=O)o2)CCO1` (stereo partly shown) [Example 262], the 50% effective concentration (EC50) was above 800 nM.
With `O=C1Nc2ccccc2C(c2ccccc2)=NC1Nc1nnc(-c2cccnc2N2C[C@H]3C[C@@H]2CO3)o1` (stereo partly shown) [Example 264], the EC50 was above 800 nM.
As for `O=C1Nc2ccccc2C(c2ccccc2)=NC1Nc1nnc(-c2cccnc2N2C3CCC2COC3)o1` (stereo not shown) [Example 265], the EC50 was above 800 nM.
`O=C1Nc2ccccc2C(c2ccccc2)=NC1Nc1nnc(-c2cccnc2N2CC3CCC(C2)O3)o1` (stereo not shown) [Example 266]: the EC50 fell in the range of 400 to 800 nM.
In the case of `O=C1Nc2ccccc2C(c2ccccc2)=NC1Nc1nnc(-c2cccnc2N2C[C@H]3COC[C@H]3C2)o1` (stereo partly shown) [Example 267], the EC50 is above 800 nM.
To `O=C1Nc2ccccc2C(c2ccccc2)=NC1Nc1nnc(-c2cccnc2N2CCn3ncnc3C2)o1` (stereo not shown) [Example 270] belongs above 800 nM; to `COC1CN(c2cc(C(F)(F)F)cnc2-c2nnc(N[C@H]3N=C(c4ccccc4)c4ccccc4NC3=O)o2)C1` [Example 271], above 800 nM.
As for `O=C1Nc2ccccc2C(c2ccccc2)=NC1Nc1nnc(-c2ccc(-n3cncn3)cc2)o1` (stereo not shown) [Example 273], the EC50 fell in the range of 400 to 800 nM.
To `N#CC1CN(c2ncccc2-c2nnc(NC3N=C(c4ccccc4)c4ccccc4NC3=O)o2)C1` (stereo not shown) [Example 274] belongs above 800 nM; to `O=C1Nc2ccccc2C(c2ccccc2)=N[C@@H]1Nc1nnc(-c2ccc(C(F)(F)F)nc2N2C3CCC2COC3)o1` [Example 275], above 800 nM; to `Cc1ccc(-c2nnc(N[C@H]3N=C(c4ccccc4)c4ccccc4NC3=O)o2)c(N2CC3CCC(C2)O3)n1` [Example 279], below 400 nM.
As for `Cc1ccc(-c2nnc(N[C@H]3N=C(c4ccccc4)c4ccccc4NC3=O)o2)c(N2C3CCC2COC3)n1` [Example 280], the EC50 was below 400 nM.
`N#Cc1ccc(-c2nnc(N[C@H]3N=C(c4ccccc4)c4ccccc4NC3=O)o2)c(N2CC3CCC(C2)O3)c1` [Example 281]: the EC50 is below 400 nM.
For `O=C1Nc2ccccc2C(c2ccccc2)=N[C@@H]1Nc1nnc(-c2ncc(C(F)(F)F)cc2-c2ccncc2)o1` [Example 282], the concentration for a half-maximal effect (EC50) was above 800 nM.
To `O=C1Nc2ccccc2C(c2ccccc2)=NC1Nc1nnc(-c2ccccc2-n2cccn2)o1` (stereo not shown) [Example 283] belongs above 800 nM.
To `C[C@@H]1CN(c2cc(F)ccc2-c2nnc(N[C@H]3N=C(c4ccccc4)c4ccccc4NC3=O)o2)C[C@H](C)O1` [Example 284] belongs above 800 nM; to `C[C@@H]1COCCN1c1cc(C#N)ccc1-c1nnc(N[C@H]2N=C(c3ccccc3)c3ccccc3NC2=O)o1` [Example 285], below 400 nM; to `Cc1ccc(-c2nnc(N[C@H]3N=C(c4ccccc4)c4ccccc4NC3=O)o2)c(N2CCOC[C@H]2C)n1` [Example 286], below 400 nM.
`O=C1Nc2ccccc2C(c2ccccc2)=N[C@@H]1Nc1nnc(-c2ccc(F)cc2N2CC3CCC(C2)O3)o1` [Example 288]: the EC50 fell in the range of 400 to 800 nM.
`N#Cc1ccc(-c2nnc(N[C@H]3N=C(c4ccccc4)c4ccccc4NC3=O)o2)c(N2C3CCC2COC3)c1` [Example 289]: the EC50 was below 400 nM.
Regarding `O=C1Nc2ccccc2C(c2ccccc2)=N[C@@H]1Nc1nnc(-c2cnc(C(F)(F)F)nc2N2CC3CCC(C2)O3)o1` [Example 290], the EC50 is above 800 nM.
`N#Cc1c[nH]c2cc(-c3nnc(N[C@H]4N=C(c5ccccc5)c5ccccc5NC4=O)o3)ccc12` [Example 291]: the EC50 is above 800 nM.
As for `O=C1Nc2ccccc2C(c2ccccc2)=N[C@@H]1Nc1nnc(-c2nnsc2N2CCOCC2)o1` [Example 292], the EC50 was below 400 nM.
Turning to `O=C1Nc2ccccc2C(c2ccccc2)=N[C@@H]1Nc1nnc(-c2ncc(C(F)(F)F)cc2C2CC2)o1` [Example 293], the EC50 was above 800 nM.
Regarding `C[C@@H]1COCCN1c1cc(C(F)(F)F)cnc1-c1nnc(N[C@H]2N=C(c3ccccc3)c3ccccc3NC2=O)o1` [Example 294], the concentration giving a half-maximal response (EC50) is below 400 nM.
As for `COc1ccc(-c2nnc(N[C@H]3N=C(c4ccccc4)c4ccccc4NC3=O)o2)c(N2CCOCC2)n1` [Example 295], the EC50 was below 400 nM.
For the molecule `CN1CCN(c2cc(C(F)(F)F)cnc2-c2nnc(N[C@H]3N=C(c4ccccc4)c4ccccc4NC3=O)o2)CC1=O` [Example 296], the EC50 was above 800 nM.
